# Publication PMC3919453 (Bioorganic & medicinal chemistry letters, 2013)
# Tests used:
# MOR = MOR (Rattus norvegicus, UniProt P33535); test: agonist-stimulated [35S]GTPγS binding, MOR; conditions: for efficacy at MOR (in words): [35S]GTPγS assay; for EC50 (nM) MOR: [35S]GTPγS binding, C6-MOR membranes, mean ± SEM, dns: does not stimulate
# DOR = DOR (Rattus norvegicus, UniProt P33533); test: agonist-stimulated [35S]GTPγS binding, DOR; conditions: for EC50 (nM) DOR: [35S]GTPγS binding, C6-DOR membranes, dns: does not stimulate
# DOR, sequence (P33533 whole entry): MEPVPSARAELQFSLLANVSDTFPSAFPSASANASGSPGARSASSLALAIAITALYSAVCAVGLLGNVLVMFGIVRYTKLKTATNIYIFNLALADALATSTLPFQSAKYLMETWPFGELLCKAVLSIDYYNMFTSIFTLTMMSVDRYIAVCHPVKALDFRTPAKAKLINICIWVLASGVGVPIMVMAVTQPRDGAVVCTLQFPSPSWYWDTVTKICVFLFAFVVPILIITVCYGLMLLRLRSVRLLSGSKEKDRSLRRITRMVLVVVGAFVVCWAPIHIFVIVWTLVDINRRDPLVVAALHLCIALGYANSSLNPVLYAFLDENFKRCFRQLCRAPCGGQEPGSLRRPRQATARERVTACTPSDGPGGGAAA
# KOR = KOR (Homo sapiens, UniProt P41145); test: agonist-stimulated [35S]GTPγS binding, KOR; conditions: for EC50 (nM) KOR: [35S]GTPγS binding, CHO-KOR membranes, mean ± SEM; for EC50 (nM) KOR / % stimulation KOR: dns: does not stimulate; for % stimulation KOR: percent maximal stimulation relative to standard agonist U69,593 at 10 µM
# KOR, sequence (P41145 whole entry): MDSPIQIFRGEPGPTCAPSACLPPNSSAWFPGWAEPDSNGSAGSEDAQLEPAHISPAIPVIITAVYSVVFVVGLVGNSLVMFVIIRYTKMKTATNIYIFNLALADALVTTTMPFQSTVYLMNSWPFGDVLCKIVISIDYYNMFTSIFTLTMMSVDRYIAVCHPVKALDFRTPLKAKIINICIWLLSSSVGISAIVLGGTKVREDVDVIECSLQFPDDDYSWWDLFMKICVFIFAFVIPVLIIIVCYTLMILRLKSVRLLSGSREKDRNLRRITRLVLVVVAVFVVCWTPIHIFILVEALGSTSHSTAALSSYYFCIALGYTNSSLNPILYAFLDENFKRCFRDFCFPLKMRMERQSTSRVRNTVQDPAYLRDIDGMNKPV
# MOR, sequence (P33535 whole entry): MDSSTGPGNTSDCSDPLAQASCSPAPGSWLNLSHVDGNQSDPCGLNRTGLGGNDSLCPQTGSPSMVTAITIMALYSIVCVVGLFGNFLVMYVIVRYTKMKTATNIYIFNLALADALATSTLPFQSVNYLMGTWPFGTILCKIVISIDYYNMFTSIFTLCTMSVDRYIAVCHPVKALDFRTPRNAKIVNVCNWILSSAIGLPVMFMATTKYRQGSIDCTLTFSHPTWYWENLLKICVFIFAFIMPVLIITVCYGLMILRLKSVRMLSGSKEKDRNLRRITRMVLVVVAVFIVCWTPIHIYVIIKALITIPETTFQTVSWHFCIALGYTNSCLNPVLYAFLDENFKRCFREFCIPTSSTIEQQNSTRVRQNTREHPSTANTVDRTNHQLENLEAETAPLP
SMILES,efficacy at MOR (in words) (MOR),EC50 (nM) MOR (MOR),EC50 (nM) DOR (DOR),EC50 (nM) KOR (KOR),% stimulation KOR (KOR),efficacy at DOR (in words) (DOR; [35S]GTPγS assay),efficacy at KOR (in words) (KOR; [35S]GTPγS assay)
Cc1cc(O)cc(C)c1C[C@H](N)C(=O)N1CCC(Cc2ccccc2)c2ccccc21 (some centres unmarked) [Compound 2],no notable efficacy,dns,dns,dns,dns,–,–
Cc1cc(O)cc(C)c1C[C@H](N)C(=O)N1CCC(Cc2ccccc2)CC1 [Compound 3],lacked any efficacy,dns,dns,dns,dns,–,–
Cc1cc(O)cc(C)c1C[C@H](N)C(=O)N1CCC(CCCc2ccccc2)CC1 [Compound 4],weak partial agonist,–,dns,dns,dns,–,–
Cc1cc(O)cc(C)c1C[C@H](N)C(=O)N1CCN(CCCc2ccccc2)CC1 [Compound 5],–,–,dns,dns,dns,–,–
Cc1cc(O)cc(C)c1C[C@H](N)C(=O)N1CCN(CCCc2cccc3ccccc23)CC1 [Compound 6],partial agonist profile,–,–,–,dns,–,–
Cc1cc(O)cc(C)c1C[C@H](N)C(=O)N1CCN(C/C=C/c2cccc3ccccc23)CC1 [Compound 7],no efficacy,–,–,–,dns,no efficacy,no efficacy
Cc1cc(O)cc(C)c1C[C@H](N)C(=O)N1CCN(CCC(c2ccccc2)c2ccccc2)CC1 [Compound 8],–,dns,dns,dns,dns,–,–
Cc1cc(O)cc(C)c1C[C@H](N)C(=O)N1CCN(CCCCc2ccccc2)CC1 [Compound 9],–,–,dns,dns,–,–,–
Cc1cc(O)cc(C)c1C[C@H](N)C(=O)N1CCN(C/C=C/Cc2ccccc2)CC1 [Compound 10],–,–,dns,–,–,–,–
Cc1cc(O)cc(C)c1C[C@H](N)C(=O)N1CCN(C/C=C\Cc2ccccc2)CC1 [Compound 11],–,–,dns,–,–,–,–
Cc1cc(O)cc(C)c1C[C@H](N)C(=O)N1CCN(CCCCCc2ccccc2)CC1 [Compound 12],–,–,dns,–,–,–,–
